Test results as given in patent US20250177502A1, “THROMBIN AND FIBRINOGEN AS TARGETS FOR ATOPIC DERMATITIS DIAGNOSIS AND TREATMENT” (Children's Hospital Medical Center, priority 2022, published 2025).

Tests used:
[1] = Bivalirudin solubility and precipitation in aqueous solutions; assay type: physicochemical
Protocol: Direct thrombin inhibitor bivalirudin was formulated in a lyophilized formulation containing 50 mg/mL of bivalirudin, 25 mg/mL of mannitol, and NaOH for pH adjustment to 5-6. […] The lyophilized bivalirudin was reconstituted with 5 mL water to a concentration of 50 mg/mL.

[2] = Absorption of topically applied bivalirudin: prothrombin time on homogenized ex vivo mouse skin samples; assay type: in vitro ADME; details: reconstituted bivalirudin 50 mg/mL applied to ex vivo mouse skin for 0, 5 or 15 minutes, then washed
Protocol: Reconstituted bivalirudin was applied to ex vivo mouse skin samples for 0, 5, or 15 minutes then repeatedly washed, the samples were homogenized, and finally a prothrombin time was run on the homogenized skin samples. […] FIG. 10 illustrates absorption of topically applied bivalirudin by measuring prothrombin time.

CC[C@H](C)[C@H](NC(=O)[C@H](CCC(=O)O)NC(=O)[C@H](CCC(=O)O)NC(=O)[C@H](Cc1ccccc1)NC(=O)[C@H](CC(=O)O)NC(=O)CNC(=O)[C@H](CC(N)=O)NC(=O)CNC(=O)CNC(=O)CNC(=O)CNC(=O)[C@@H]1CCCN1C(=O)[C@H](CCCNC(=N)N)NC(=O)[C@@H]1CCCN1C(=O)[C@H](N)Cc1ccccc1)C(=O)N1CCC[C@H]1C(=O)N[C@@H](CCC(=O)O)C(=O)N[C@@H](CCC(=O)O)C(=O)N[C@@H](Cc1ccc(O)cc1)C(=O)N[C@@H](CC(C)C)C(=O)O [bivalirudin]
solubility: influence of pH [1]: influenced by pH | solubility: influence of temperature and addition of mannitol [1]: not affected | absorption by skin and retained function (prothrombin time of homogenized skin) [2]: is absorbed and retains function
